Measurements as given in ChEMBL document CHEMBL1123271, “Selective monoamine oxidase inhibitors. 4. 4-Aminophenethylamine derivatives with neuron-selective action” (J Med Chem, 1986).

Experiments:
[1] = species on record: Rattus norvegicus; assay: Determined from log concentration-inhibition curves using rat brain mitochondrial preparation as enzyme and phenethylamine (PEA) as a substrate; assay type: functional
[2] = species on record: Rattus norvegicus; assay: Compound was tested for its ability to inhibit serotonin uptake; assay type: functional, organism-based
[3] = species on record: Rattus norvegicus; assay: Determined from log concentration-inhibition curves using rat brain mitochondrial preparation as enzyme and [14C]5-HT (5-HT) as a substrate; assay type: functional
[4] = system: Rattus norvegicus; assay: Compound was tested for the behavioral changes in reserpinized rats that indicates the release of serotonin (5-HT syndrome) by subcuteneous administration; assay type: functional
[5] = Ratio (PEA/5-HT) of the compound; assay type: functional
[6] = system: Rattus norvegicus; assay: Compound was tested for the behavioral changes in reserpinized rats that indicates the release of norepinephrine (reversal of ptosis) by subcuteneous administration; assay type: functional
[7] = species on record: Rattus norvegicus; assay: Compound was tested for its ability to inhibit norepinephrine uptake; assay type: functional, organism-based
[8] = Ratio between inhibition of outside DA neurons to that of inside DA neurons; assay type: functional
[9] = Ratio between inhibition of outside NE neurons to that of inside NE neurons; assay type: functional
[10] = Ratio between inhibition of outside 5-HT neurons to that of inside 5-HT neurons; assay type: functional
[11] = system: Rattus norvegicus; assay: Compound was tested for the behavioral changes in reserpinized rats that indicates the release of dopamine by subcuteneous administration; assay type: functional
[12] = species on record: Rattus norvegicus; assay: Compound was tested for its ability to inhibit dopamine uptake; assay type: functional, organism-based
[13] = species on record: Rattus norvegicus; assay: Compound was tested for its ability to inhibit norepinephrine uptake.; assay type: functional, organism-based

Q: With `CC(C)(N)Cc1ccc(N)cc1F` as the compound, how does the IC50 [1] read?
A: The IC50 was 2800 µM.

Q: And the IC50 [2]?
A: Its IC50 is 27 µM.

Q: And the IC50 [3]?
A: The IC50 was 6 µM.

Q: What about the Least dose [4] of the same compound?
A: The Least dose was >264 mg/kg.

Q: What about the Ratio [5] of the same compound?
A: The Ratio was 467.

Q: What about the Least dose [6] of the same compound?
A: Its Least dose is 264 mg/kg.

Q: What about the IC50 [7] of the same compound?
A: The IC50 was 0.32 µM.

Q: What about the Ratio [8] of the same compound?
A: The Ratio was 4.1.

Q: And the Ratio [9]?
A: The Ratio was >2.

Q: What about the Ratio [10] of the same compound?
A: Its Ratio is 1.6.

Q: What about the Least dose [11] of the same compound?
A: Its Least dose is 264 mg/kg.

Q: And the IC50 [12]?
A: Its IC50 is 1.6 µM.

Q: For `Cc1cc(N)c(Br)cc1CC(C)N` (centres undefined), which IC50 [1] is on record?
A: Its IC50 is 290 µM.

Q: What about the IC50 [2] of the same compound?
A: The IC50 was 6.5 µM.

Q: And the IC50 [3]?
A: The IC50 was 1.5 µM.

Q: What about the Least dose [4] of the same compound?
A: Its Least dose is 211 mg/kg.

Q: What about the Ratio [5] of the same compound?
A: Its Ratio is 193.

Q: And the Least dose [6]?
A: The Least dose was 211 mg/kg.

Q: And the IC50 [7]?
A: Its IC50 is 0.55 µM.

Q: And the Ratio [8]?
A: Its Ratio is 2.1.

Q: What about the Ratio [9] of the same compound?
A: Its Ratio is >4.

Q: And the Ratio [10]?
A: Its Ratio is >2.

Q: And the Least dose [11]?
A: The Least dose was >211 mg/kg.

Q: And the IC50 [12]?
A: Its IC50 is 2 µM.

Q: Which IC50 [1] does the source give for `CC(C)(N)Cc1ccc(N)cc1Cl` here?
A: Its IC50 is 1700 µM.

Q: And the IC50 [2]?
A: Its IC50 is 5.5 µM.

Q: And the IC50 [3]?
A: Its IC50 is 1.3 µM.

Q: And the Least dose [4]?
A: Its Least dose is >247 mg/kg.

Q: And the Ratio [5]?
A: Its Ratio is 1310.

Q: And the Least dose [6]?
A: Its Least dose is 247 mg/kg.

Q: What about the Ratio [8] of the same compound?
A: The Ratio was 2.5.

Q: What about the IC50 [13] of the same compound?
A: The IC50 was 0.6 µM.

Q: And the Ratio [9]?
A: The Ratio was 4.5.

Q: What about the Ratio [10] of the same compound?
A: Its Ratio is 6.

Q: What about the Least dose [11] of the same compound?
A: The Least dose was >247 mg/kg.

Q: And the IC50 [12]?
A: The IC50 was 15 µM.

Q: Which results are given for `CC(N)Cc1ccc(N)cc1F` (centres undefined)?
A: IC50 [1]: 800 µM; IC50 [2]: 1.3 µM; IC50 [3]: 0.75 µM; Least dose [4]: 140 mg/kg; Ratio [5]: 1070; Least dose [6]: 17 mg/kg; IC50 [7]: 0.05 µM; Ratio [8]: 23; Ratio [9]: 71; Ratio [10]: 9; Least dose [11]: 35 mg/kg; IC50 [12]: 0.42 µM

Q: Which IC50 [1] does the source give for `Cc1cc(N)ccc1CC(C)(C)N` here?
A: Its IC50 is 1500 µM.

Q: And the IC50 [2]?
A: The IC50 was 2.6 µM.

Q: And the IC50 [3]?
A: Its IC50 is 20 µM.

Q: What about the Least dose [4] of the same compound?
A: Its Least dose is >269 mg/kg.

Q: And the Ratio [5]?
A: The Ratio was 75.

Q: What about the Least dose [6] of the same compound?
A: The Least dose was >269 mg/kg.

Q: And the IC50 [7]?
A: Its IC50 is 0.36 µM.

Q: And the Ratio [10]?
A: The Ratio was >1.

Q: And the Least dose [11]?
A: The Least dose was >269 mg/kg.

Q: And the IC50 [12]?
A: Its IC50 is 40 µM.

Q: For `CCc1cc(N)ccc1CC(C)N` (centres undefined), which IC50 [1] is on record?
A: Its IC50 is 1200 µM.

Q: What about the IC50 [2] of the same compound?
A: The IC50 was 10 µM.

Q: What about the IC50 [3] of the same compound?
A: The IC50 was 60 µM.

Q: What about the Least dose [4] of the same compound?
A: Its Least dose is >269 mg/kg.

Q: What about the Least dose [6] of the same compound?
A: Its Least dose is >269 mg/kg.

Q: And the IC50 [7]?
A: Its IC50 is 2 µM.

Q: And the Least dose [11]?
A: Its Least dose is >269 mg/kg.

Q: And the IC50 [12]?
A: The IC50 was 20 µM.

Q: Which results are given for `CC(N)Cc1ccc(N)cc1Cl` (centres undefined)?
A: IC50 [1]: 750 µM; IC50 [2]: 3 µM; IC50 [3]: 0.27 µM; Least dose [4]: 33 mg/kg; Ratio [5]: 2780; Least dose [6]: 16 mg/kg; IC50 [7]: 0.19 µM; Ratio [8]: 3.3; Ratio [9]: >70; Ratio [10]: 20; Least dose [11]: >131 mg/kg; IC50 [12]: 0.07 µM

Q: What does the source list for `Cc1cc(N)ccc1CC(C)N` (centres undefined)?
A: IC50 [1]: 2500 µM; IC50 [2]: 9 µM; IC50 [3]: 1.6 µM; Least dose [4]: 270 mg/kg; Ratio [5]: 1560; Least dose [6]: 270 mg/kg; IC50 [7]: 0.32 µM; Ratio [8]: 9.7; Ratio [9]: >12; Ratio [10]: >>5; Least dose [11]: >270 mg/kg; IC50 [12]: 11 µM

Q: Which results are given for `CC(N)Cc1ccc(N)cc1` (centres undefined)?
A: IC50 [1]: 7000 µM; IC50 [2]: 20 µM; IC50 [3]: 6.8 µM; Least dose [4]: 276 mg/kg; Ratio [5]: 1030; Least dose [6]: 72 mg/kg; IC50 [7]: 0.07 µM; Ratio [8]: 19; Ratio [9]: >10; Ratio [10]: >>5; Least dose [11]: 72 mg/kg; IC50 [12]: 0.16 µM

Q: What does the source list for `CC(N)Cc1c(Cl)cc(N)cc1Cl` (centres undefined)?
A: IC50 [1]: 340 µM; IC50 [2]: 30 µM; IC50 [3]: 0.012 µM; Least dose [4]: >229 mg/kg; Ratio [5]: 28300; Least dose [6]: 115 mg/kg; IC50 [7]: 2.2 µM; Ratio [8]: 1.5; Ratio [9]: 2.2; Ratio [10]: 1; Least dose [11]: 229 mg/kg; IC50 [12]: 30 µM
